Data on 3 compounds can be found in ChEMBL document CHEMBL4428111, “Antiplasmodial activity of alkyl-substituted 1,2-dioxetanes against Plasmodium falciparum” (Bioorg Med Chem Lett, 2016).

In series [1] the test system is Plasmodium falciparum. Nature of the series: Antiplasmodial activity against chloroquine-resistant/mefloquine-sensitive Plasmodium falciparum W2 schizonts infected in human erythrocytes assessed as inhibition of parasite invasion at 10^-12 mol/L after 24 hrs by Diff-Quick staining based microscopic analysis relative to control. In kind it is functional. The note with it: W2, 24 h.

Series [2] has as its system Plasmodium falciparum. Kind of series: Antiplasmodial activity against chloroquine-resistant/mefloquine-sensitive Plasmodium falciparum W2 schizonts infected in human erythrocytes assessed as parasite invasion after 24 hrs by Diff-Quick staining based microscopic analysis (reference value: 15.26 +/- 2.13%). In kind it is functional.
The test system of series [3] is Plasmodium falciparum. Kind of series: Antiplasmodial activity against chloroquine-resistant/mefloquine-sensitive Plasmodium falciparum W2 schizonts infected in human erythrocytes assessed as inhibition of parasite invasion after 24 hrs by Diff-Quick staining based microscopic analysis. In kind it is functional, organism-based. The settings on record: W2, 24 h.
Series [4] deals with Plasmodium falciparum. Kind of series: Antiplasmodial activity against chloroquine-resistant/mefloquine-sensitive Plasmodium falciparum W2 schizonts infected in human erythrocytes assessed as inhibition of parasite invasion at 10^-7 mol/L after 24 hrs by Diff-Quick staining based microscopic analysis relative to control. In kind it is functional. The settings on record: W2, 24 h.

The test system of series [5] is Plasmodium falciparum. Nature of the series: Antiplasmodial activity against chloroquine-resistant/mefloquine-sensitive Plasmodium falciparum W2 schizonts infected in human erythrocytes assessed as inhibition of parasite invasion at 10^-10 mol/L after 24 hrs by Diff-Quick staining based microscopic analysis relative to control. In kind it is functional. The note with it: W2, 24 h.

Series [6] can be described thus: Therapeutic index, ratio of MHC for human RBC to MIC for chloroquine-resistant/mefloquine-sensitive Plasmodium falciparum W2 schizonts infected in human erythrocytes. In kind it is toxicity, cell-based. The note with it: read-out: TI.
Series [7] has as its system Erythrocyte. Kind of series: Hemolytic activity against human RBC assessed as reduction in hemoglobin release after 24 hrs by spectrophotometric method. The class given is ADME, cell-based.
In series [8] the test system is Plasmodium falciparum. Kind of series: Antiplasmodial activity against chloroquine-resistant/mefloquine-sensitive Plasmodium falciparum W2 schizonts infected in human erythrocytes assessed as inhibition of parasite invasion at 10^-8 mol/L after 24 hrs by Diff-Quick staining based microscopic analysis relative to control. In kind it is functional. The settings on record: W2, 24 h.

Series [9] concerns Erythrocyte. Kind of series: Hemolytic activity against human RBC assessed as reduction in hemoglobin release at 10^-8 M after 24 hrs by spectrophotometric method relative to control. In kind it is ADME, cell-based. Also noted: scale not given: the % may be the effect or the level left. The settings on record: 0.01 µM.
Series [10] concerns Plasmodium falciparum. Kind of series: Antiplasmodial activity against chloroquine-resistant/mefloquine-sensitive Plasmodium falciparum W2 schizonts infected in human erythrocytes assessed as inhibition of parasite invasion at 10^-5 mol/L after 24 hrs by Diff-Quick staining based microscopic analysis relative to control. The class given is functional. The note with it: W2, 24 h.

Series [11] deals with Plasmodium falciparum. Nature of the series: Antiplasmodial activity against chloroquine-resistant/mefloquine-sensitive Plasmodium falciparum W2 schizonts infected in human erythrocytes assessed as inhibition of parasite invasion at 10^-6 mol/L after 24 hrs by Diff-Quick staining based microscopic analysis relative to control. In kind it is functional. The settings on record: W2, 24 h.

Series [12] relates to Plasmodium falciparum. Nature of the series: Antiplasmodial activity against chloroquine-resistant/mefloquine-sensitive Plasmodium falciparum W2 schizonts infected in human erythrocytes assessed as inhibition of parasite invasion after 24 hrs by Diff-Quick staining based microscopic analysis relative to artemisinin. The class given is functional.
The subject of series [13] is Plasmodium falciparum. Nature of the series: Antiplasmodial activity against chloroquine-resistant/mefloquine-sensitive Plasmodium falciparum W2 schizonts infected in human erythrocytes assessed as inhibition of parasite invasion at 10^-4 mol/L after 24 hrs by Diff-Quick staining based microscopic analysis relative to control. The settings on record: W2, 24 h. In kind it is functional.

The subject of series [14] is Plasmodium falciparum. Kind of series: Antiplasmodial activity against chloroquine-resistant/mefloquine-sensitive Plasmodium falciparum W2 schizonts infected in human erythrocytes assessed as inhibition of parasite invasion at 10^-9 mol/L after 24 hrs by Diff-Quick staining based microscopic analysis relative to control. In kind it is functional. The note with it: W2, 24 h.

The subject of series [15] is Plasmodium falciparum. Nature of the series: Antiplasmodial activity against chloroquine-resistant/mefloquine-sensitive Plasmodium falciparum W2 schizonts infected in human erythrocytes assessed as inhibition of parasite invasion at 10^-14 mol/L after 24 hrs by Diff-Quick staining based microscopic analysis relative to control. The class given is functional. The note with it: W2, 24 h.

Series [16] deals with Plasmodium falciparum. Nature of the series: Antiplasmodial activity against chloroquine-resistant/mefloquine-sensitive Plasmodium falciparum W2 schizonts infected in human erythrocytes assessed as inhibition of parasite invasion at 10^-11 mol/L after 24 hrs by Diff-Quick staining based microscopic analysis relative to control. The class given is functional. The settings on record: W2, 24 h.

pIC50: −log10 of the molar value. Converted amounts (≈) assume the structure as drawn.

Consider `CC1(C)OOC1(C)C`, for which the inhibition at 1 pM in the series with Plasmodium falciparum [1] was in the range of 16.7 to 17.4%. Further, the Activity in the series with Plasmodium falciparum [2] came to 9.83%; in the series with Erythrocyte [9], 1.4%. The pIC50 in the series with Plasmodium falciparum [3] was 7.35. Besides, the minimum inhibitory concentration (MIC) in the series with Plasmodium falciparum [3] was found to be 0.001 nM (≈ 0.000116 ng/mL). In the series on Plasmodium falciparum [4], the inhibition at 0.1 µM fell in the range of 60.2 to 60.3%. Moreover, in the series with Plasmodium falciparum [5], the inhibition at 0.0001 µM is 23.4 to 25.6%. Moreover, the selectivity ratio in [6] turned out to be 1e+07. The MHC with Erythrocyte [7] was found to be 1 ×10⁻⁵ M. Further, in the series on Plasmodium falciparum [8], the inhibition at 0.01 µM lay in the range of 35.6 to 36.3%. Also, in the series with Plasmodium falciparum [10], the inhibition at 10 µM fell in the range of 81 to 84%. The inhibition at 1 µM in the series with Plasmodium falciparum [11] lay in the range of 74.7 to 79.4%. For the same compound, the “fold change (FC)” value with Plasmodium falciparum [12] turned out to be 0.45.
For `C[C@@H]1CC[C@H]2[C@@H](C)C(=O)O[C@@H]3O[C@@]4(C)CC[C@@H]1[C@]32OO4` [ARTEMISININ], in the series on Plasmodium falciparum [1], the inhibition at 1 pM is 38.5 to 40.6%. Also, the Activity with Plasmodium falciparum [2] is listed as 5.58%. Besides, in the series on Plasmodium falciparum [3], the pIC50 is 7.70 to 8.00 and the MIC turned out to be 0.001 nM (≈ 0.000282 ng/mL). In the series on Plasmodium falciparum [13], the inhibition at 100 µM was found to be 100%. Further, the inhibition at 0.1 µM in the series with Plasmodium falciparum [4] was in the range of 82.2 to 85.4%. In addition, in the series with Plasmodium falciparum [5], the inhibition at 0.0001 µM is 43.1 to 48.7%. In addition, the MHC in the series on Erythrocyte [7] came out at 1 ×10⁻⁴ M. In the series with Plasmodium falciparum [8], the inhibition at 0.01 µM was in the range of 63.4 to 67.4%. Moreover, the Activity in the series with Erythrocyte [9] was 1.5%. Besides, the inhibition at 0.001 µM in the series on Plasmodium falciparum [14] lay within 52.3 to 54%. For the same compound, the inhibition at 1 µM in the series on Plasmodium falciparum [11] was in the range of 99 to 100%.
For the compound `C1C2CC3CC1CC(C2)C31OOC12C1CC3CC(C1)CC2C3` (configuration not stated), the inhibition at 10 fM in the series with Plasmodium falciparum [15] fell in the range of 16.7 to 18.4%. In addition, in the series with Plasmodium falciparum [1], the inhibition at 1 pM lay in the range of 20.5 to 21.2%. Further, the Activity in the series with Plasmodium falciparum [2] came to 6.01%; in the series on Erythrocyte [9], 2%. Further, the pIC50 with Plasmodium falciparum [3] was 9.72. Moreover, in the series with Plasmodium falciparum [5], the inhibition at 0.0001 µM is 36.2 to 38.8%. The MHC in the series on Erythrocyte [7] came out at 1 ×10⁻⁶ M. Further, in the series on Plasmodium falciparum [8], the inhibition at 0.01 µM lay within 64 to 65.8%. Besides, the inhibition at 10 pM in the series on Plasmodium falciparum [16] lay within 24.6 to 25.4%. Moreover, the inhibition at 0.001 µM in the series with Plasmodium falciparum [14] is 53.4 to 54.4%. For the same compound, in the series on Plasmodium falciparum [11], the inhibition at 1 µM lay within 65.6 to 67%. Besides, the “fold change (FC)” value in the series with Plasmodium falciparum [12] is recorded as 105.
